{
  "source": "ChEMBL document CHEMBL1201862",
  "about": "“PubChem BioAssay data set” (2004)",
  "key": {"[1]": {"biological_target": "T1, Alkaline phosphatase, tissue-nonspecific isozyme (Homo sapiens, UniProt P05186)", "T1 sequence (P05186 whole entry)": "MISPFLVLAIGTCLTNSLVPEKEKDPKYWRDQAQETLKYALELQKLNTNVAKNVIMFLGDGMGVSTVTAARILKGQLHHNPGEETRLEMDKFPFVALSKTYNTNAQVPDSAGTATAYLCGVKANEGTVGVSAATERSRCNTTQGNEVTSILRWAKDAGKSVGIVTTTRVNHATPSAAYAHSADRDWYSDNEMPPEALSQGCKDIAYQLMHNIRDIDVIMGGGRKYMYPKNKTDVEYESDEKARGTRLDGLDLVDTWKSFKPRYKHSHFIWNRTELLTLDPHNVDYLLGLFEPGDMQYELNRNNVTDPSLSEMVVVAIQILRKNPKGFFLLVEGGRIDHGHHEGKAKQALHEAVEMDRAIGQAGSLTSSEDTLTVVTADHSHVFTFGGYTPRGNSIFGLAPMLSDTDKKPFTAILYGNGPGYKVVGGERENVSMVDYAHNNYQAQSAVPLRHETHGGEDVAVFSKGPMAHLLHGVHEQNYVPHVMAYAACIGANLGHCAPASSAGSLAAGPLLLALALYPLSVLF", "experiment": "activation of tissue-nonspecific alkaline phosphatase – biochemical, TNAP isozyme, mouse IAP uHTS hits, selectivity assay for mouse IAP activator project, dose response (AID 488880)", "assay_type": "functional"}, "[2]": {"biological_target": "26S proteasome non-ATPase regulatory subunit 14 (Homo sapiens, UniProt O00487)", "sequence (O00487 whole entry)": "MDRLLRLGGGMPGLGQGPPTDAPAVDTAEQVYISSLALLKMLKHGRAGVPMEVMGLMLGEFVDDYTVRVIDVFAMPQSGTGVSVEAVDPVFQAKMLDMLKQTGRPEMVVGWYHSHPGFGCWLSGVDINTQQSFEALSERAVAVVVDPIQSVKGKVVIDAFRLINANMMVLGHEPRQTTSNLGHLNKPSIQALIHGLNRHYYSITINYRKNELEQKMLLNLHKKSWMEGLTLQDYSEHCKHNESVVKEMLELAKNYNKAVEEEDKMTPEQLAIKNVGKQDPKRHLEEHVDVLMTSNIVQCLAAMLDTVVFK", "experiment": "inhibition of proteasome subunit RPN11 – biochemical, fluorescence polarization, uHTS hits, confirmation (AID 602368)", "assay_type": "functional"}, "Large T antigen": {"biological_target": "Large T antigen (Simian virus 40, UniProt P03070)", "assay_type": "functional, Betapolyomavirus macacae"}, "Genome polyprotein": {"biological_target": "Genome polyprotein (dengue virus type 2, UniProt P29990)", "experiment": "flavivirus cap methylation enzyme inhibition – biochemical, confirmation dose response, primary screen (AID 588689)", "assay_type": "functional"}, "Cysteine protease ATG4B": {"biological_target": "T2, Cysteine protease ATG4B (Homo sapiens, UniProt Q9Y4P1)", "T2 sequence (Q9Y4P1 whole entry)": "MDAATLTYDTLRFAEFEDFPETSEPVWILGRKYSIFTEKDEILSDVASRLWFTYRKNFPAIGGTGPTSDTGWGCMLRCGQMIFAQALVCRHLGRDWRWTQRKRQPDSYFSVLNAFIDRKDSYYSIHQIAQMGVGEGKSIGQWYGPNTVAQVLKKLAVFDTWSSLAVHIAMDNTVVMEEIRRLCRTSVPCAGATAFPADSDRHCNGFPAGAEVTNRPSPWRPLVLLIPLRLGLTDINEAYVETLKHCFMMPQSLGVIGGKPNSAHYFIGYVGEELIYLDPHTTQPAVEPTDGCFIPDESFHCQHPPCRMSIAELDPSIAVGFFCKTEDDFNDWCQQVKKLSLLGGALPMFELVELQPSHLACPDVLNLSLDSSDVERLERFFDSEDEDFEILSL", "assay_type": "functional"}, "[3]": {"biological_target": "Intestinal-type alkaline phosphatase (Homo sapiens, UniProt P09923)", "experiment": "activation of human intestinal alkaline phosphatase – biochemical, dose response (AID 488873)", "assay_type": "functional"}, "Phospholipase A2": {"biological_target": "Phospholipase A2 (Homo sapiens, UniProt P04054)", "sequence (P04054 whole entry)": "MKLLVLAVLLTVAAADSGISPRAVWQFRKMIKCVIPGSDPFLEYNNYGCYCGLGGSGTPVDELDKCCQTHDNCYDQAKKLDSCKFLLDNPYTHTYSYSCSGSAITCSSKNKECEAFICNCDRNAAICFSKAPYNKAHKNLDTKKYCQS", "assay_type": "functional"}, "Vero": {"system": "Vero", "experiment": "viability of Vero cells under compound – cytotoxicity control for flavivirus capping enzyme inhibitors (AID 588742)", "assay_type": "functional", "settings": "Chlorocebus sabaeus"}, "[4]": {"biological_target": "Intestinal-type alkaline phosphatase (Mus musculus, UniProt P24822)", "experiment": "mouse intestinal alkaline phosphatase activators, dose response, biochemical, luminescence, uHTS hits (AID 488783)", "assay_type": "functional"}, "Prothrombin": {"biological_target": "Prothrombin (Bos taurus, UniProt P00735)", "experiment": "thrombin protease inhibitors – biochemical, fluorescence polarization, uHTS hits, dose response (AID 602369)", "assay_type": "functional"}, "ORF 73": {"biological_target": "ORF 73 (Human herpesvirus 8, UniProt O40947)", "sequence (O40947 whole entry)": "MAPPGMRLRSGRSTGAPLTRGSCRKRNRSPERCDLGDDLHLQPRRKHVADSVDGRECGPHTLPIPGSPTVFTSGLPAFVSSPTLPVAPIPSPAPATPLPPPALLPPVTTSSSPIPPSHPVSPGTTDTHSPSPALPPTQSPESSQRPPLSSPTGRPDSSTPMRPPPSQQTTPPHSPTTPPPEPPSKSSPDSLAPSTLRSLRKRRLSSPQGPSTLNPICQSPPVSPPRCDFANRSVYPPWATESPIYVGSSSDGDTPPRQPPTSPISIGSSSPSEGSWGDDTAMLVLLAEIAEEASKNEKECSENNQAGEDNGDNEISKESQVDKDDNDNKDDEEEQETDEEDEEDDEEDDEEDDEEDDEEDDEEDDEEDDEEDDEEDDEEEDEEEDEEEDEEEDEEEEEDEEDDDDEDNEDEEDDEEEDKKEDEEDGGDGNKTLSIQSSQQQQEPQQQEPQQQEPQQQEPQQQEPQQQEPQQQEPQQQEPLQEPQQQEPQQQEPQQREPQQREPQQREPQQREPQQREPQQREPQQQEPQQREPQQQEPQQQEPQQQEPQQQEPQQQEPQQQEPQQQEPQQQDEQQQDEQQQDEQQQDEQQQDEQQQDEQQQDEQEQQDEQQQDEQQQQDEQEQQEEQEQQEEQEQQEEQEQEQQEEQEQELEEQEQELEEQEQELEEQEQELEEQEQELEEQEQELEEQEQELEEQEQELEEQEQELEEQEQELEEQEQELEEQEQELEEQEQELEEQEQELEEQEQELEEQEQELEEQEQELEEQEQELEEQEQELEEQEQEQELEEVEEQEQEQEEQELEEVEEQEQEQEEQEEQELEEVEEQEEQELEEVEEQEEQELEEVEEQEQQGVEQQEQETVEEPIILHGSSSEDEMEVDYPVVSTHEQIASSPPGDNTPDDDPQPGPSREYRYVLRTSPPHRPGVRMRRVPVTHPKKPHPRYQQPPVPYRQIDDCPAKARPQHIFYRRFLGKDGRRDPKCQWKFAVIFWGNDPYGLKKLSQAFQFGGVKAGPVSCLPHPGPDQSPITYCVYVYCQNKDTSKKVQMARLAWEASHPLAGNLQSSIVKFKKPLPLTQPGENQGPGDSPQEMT", "experiment": "KSHV LANA DNA-binding disruption – biochemical, fluorescence polarization, cherry-picked samples, dose response (AID 504725);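 note: fluorescence polarization of a labeled DNA duplex reporting LANA DNA binding; potency is for inhibitors that block LANA binding to the DNA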", "design": "species or system Human gammaherpesvirus 8"}, "[5]": {"biological_target": "72 kDa type IV collagenase (Homo sapiens, UniProt P08253)", "experiment": "Dose Response validation of uHTS RPN11 inhibitor hits using a MMP-2 Fluorescence assay.", "assay_type": "functional"}, "[6]": {"biological_target": "T3, Kappa-type opioid receptor (Homo sapiens, UniProt P41145)", "T3 sequence (P41145 whole entry)": "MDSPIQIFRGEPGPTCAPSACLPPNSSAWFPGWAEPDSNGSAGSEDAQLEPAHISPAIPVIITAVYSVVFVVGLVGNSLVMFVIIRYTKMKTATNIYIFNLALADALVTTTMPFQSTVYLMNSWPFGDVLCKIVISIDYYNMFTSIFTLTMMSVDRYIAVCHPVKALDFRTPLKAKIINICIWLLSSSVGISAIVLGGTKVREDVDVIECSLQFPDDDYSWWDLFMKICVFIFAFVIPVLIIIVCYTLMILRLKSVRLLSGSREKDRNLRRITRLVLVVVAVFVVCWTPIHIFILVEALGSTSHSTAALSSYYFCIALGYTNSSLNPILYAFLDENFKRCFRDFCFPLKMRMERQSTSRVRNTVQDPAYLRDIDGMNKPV", "experiment": "SAR analysis of Antagonists of the Kappa Opioid Receptor (KOR) using an Image-Based Assay - Set 2. [Related pubchem assays (depositor defined):AID1777, AID1785, AID1786, AID1966, AID2133, AID2136, AID2284, AID2285, AID2348]", "assay_type": "functional"}, "[7]": {"biological_target": "Delta-type opioid receptor (Homo sapiens, UniProt P41143)", "experiment": "SAR Analysis of Antagonists of the DOR Receptor using an Image-Based Assay - Set 2. [Related pubchem assays (depositor defined):AID1777, AID1785, AID1786, AID1966, AID2133, AID2136, AID2284, AID2285, AID2357]", "assay_type": "functional"}, "[8]": {"biological_target": "T3, Kappa-type opioid receptor", "experiment": "SAR analysis of small molecule agonists of the kappa opioid receptor via a luminescent beta-arrestin assay - Set 2. [Related pubchem assays (depositor defined):AID1777, AID1785, AID1786, AID1966, AID2133, AID2136, AID2284, AID449737]", "assay_type": "functional"}, "[9]": {"biological_target": "G-protein coupled receptor 55 (Homo sapiens, UniProt Q9Y2T6)", "experiment": "blockers of GPR55 signalling, imaged – imaging, image-based, counter-screen for GPR35 antagonist project, SAR follow-up (AID 2397)", "assay_type": "functional"}, "Fatty acid synthase [10]": {"biological_target": "T4, Fatty acid synthase (Homo sapiens, UniProt P49327)", "T4 sequence (P49327 whole entry)": "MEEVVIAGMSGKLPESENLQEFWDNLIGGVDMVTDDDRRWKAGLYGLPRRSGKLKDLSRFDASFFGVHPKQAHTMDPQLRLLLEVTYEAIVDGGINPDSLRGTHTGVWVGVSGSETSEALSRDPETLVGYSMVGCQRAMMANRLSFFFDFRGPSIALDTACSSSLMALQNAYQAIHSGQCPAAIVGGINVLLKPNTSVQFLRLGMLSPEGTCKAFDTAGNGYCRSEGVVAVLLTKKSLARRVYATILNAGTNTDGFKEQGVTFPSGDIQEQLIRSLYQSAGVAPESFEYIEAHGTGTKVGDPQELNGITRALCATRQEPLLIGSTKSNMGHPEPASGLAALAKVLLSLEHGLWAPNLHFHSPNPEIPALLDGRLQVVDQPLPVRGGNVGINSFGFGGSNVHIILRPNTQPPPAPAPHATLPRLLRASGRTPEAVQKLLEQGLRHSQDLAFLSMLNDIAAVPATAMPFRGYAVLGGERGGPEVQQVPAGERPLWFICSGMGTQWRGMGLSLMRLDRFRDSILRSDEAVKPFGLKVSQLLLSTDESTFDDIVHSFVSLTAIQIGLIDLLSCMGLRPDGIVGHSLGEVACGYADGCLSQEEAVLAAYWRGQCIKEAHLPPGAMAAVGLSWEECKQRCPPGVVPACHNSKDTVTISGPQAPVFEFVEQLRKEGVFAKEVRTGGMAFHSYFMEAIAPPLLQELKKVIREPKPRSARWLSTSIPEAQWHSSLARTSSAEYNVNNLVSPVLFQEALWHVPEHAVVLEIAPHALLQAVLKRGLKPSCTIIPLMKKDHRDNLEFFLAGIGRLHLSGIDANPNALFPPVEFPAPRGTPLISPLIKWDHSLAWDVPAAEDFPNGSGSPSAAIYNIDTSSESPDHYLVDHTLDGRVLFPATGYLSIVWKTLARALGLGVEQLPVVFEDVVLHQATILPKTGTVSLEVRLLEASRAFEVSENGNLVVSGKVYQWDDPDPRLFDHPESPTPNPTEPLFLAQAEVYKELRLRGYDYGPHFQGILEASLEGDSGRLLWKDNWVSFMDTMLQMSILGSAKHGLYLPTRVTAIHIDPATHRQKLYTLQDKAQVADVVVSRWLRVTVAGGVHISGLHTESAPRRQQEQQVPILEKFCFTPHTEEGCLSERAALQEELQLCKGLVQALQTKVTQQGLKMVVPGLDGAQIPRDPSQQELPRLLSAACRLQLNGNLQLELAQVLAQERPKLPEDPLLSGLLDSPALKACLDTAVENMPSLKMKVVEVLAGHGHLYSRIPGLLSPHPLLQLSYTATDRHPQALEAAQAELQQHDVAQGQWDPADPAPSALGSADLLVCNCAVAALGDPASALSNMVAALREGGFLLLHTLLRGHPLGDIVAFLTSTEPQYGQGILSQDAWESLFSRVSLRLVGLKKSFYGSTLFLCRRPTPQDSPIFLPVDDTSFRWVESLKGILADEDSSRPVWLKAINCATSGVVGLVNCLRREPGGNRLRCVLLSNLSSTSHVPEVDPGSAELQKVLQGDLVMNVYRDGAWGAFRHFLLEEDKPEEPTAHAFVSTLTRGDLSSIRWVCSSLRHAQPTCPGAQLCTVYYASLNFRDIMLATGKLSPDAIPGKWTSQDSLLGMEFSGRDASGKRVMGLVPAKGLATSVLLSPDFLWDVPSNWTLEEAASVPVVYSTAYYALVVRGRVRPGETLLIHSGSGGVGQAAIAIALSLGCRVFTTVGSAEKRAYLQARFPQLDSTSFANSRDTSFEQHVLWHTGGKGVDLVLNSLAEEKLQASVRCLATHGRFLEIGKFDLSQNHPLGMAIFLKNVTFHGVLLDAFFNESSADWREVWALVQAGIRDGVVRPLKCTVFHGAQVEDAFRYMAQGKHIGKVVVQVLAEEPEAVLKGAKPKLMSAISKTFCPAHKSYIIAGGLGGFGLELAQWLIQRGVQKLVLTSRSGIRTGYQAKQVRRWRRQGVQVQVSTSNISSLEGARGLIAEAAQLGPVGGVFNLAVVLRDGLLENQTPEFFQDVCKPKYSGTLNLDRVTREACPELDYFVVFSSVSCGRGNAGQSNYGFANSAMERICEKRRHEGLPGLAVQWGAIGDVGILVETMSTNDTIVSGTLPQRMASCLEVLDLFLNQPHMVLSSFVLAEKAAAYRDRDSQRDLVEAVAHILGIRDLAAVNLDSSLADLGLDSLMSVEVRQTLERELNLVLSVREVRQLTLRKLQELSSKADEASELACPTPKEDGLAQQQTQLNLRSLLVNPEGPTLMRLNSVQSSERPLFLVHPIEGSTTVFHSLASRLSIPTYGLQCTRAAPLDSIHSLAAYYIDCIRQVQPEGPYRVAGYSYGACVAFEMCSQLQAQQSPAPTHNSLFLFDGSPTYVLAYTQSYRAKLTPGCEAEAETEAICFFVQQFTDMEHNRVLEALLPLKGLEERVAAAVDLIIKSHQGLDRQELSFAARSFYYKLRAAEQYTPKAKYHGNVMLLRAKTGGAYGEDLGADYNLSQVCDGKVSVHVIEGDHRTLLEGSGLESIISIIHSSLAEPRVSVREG", "experiment": "inhibition of human FAS-TE enzyme activity – biochemical, endpoint fluorescence intensity, uHTS hits, dose response (AID 624327);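 note: fluorescence from hydrolysis of an O-methyl fluorescein acyl ester substrate by the enzyme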", "assay_type": "functional"}, "Cytochrome P450 2D6": {"biological_target": "Cytochrome P450 2D6 (Homo sapiens, UniProt P10635)", "sequence (P10635 whole entry)": "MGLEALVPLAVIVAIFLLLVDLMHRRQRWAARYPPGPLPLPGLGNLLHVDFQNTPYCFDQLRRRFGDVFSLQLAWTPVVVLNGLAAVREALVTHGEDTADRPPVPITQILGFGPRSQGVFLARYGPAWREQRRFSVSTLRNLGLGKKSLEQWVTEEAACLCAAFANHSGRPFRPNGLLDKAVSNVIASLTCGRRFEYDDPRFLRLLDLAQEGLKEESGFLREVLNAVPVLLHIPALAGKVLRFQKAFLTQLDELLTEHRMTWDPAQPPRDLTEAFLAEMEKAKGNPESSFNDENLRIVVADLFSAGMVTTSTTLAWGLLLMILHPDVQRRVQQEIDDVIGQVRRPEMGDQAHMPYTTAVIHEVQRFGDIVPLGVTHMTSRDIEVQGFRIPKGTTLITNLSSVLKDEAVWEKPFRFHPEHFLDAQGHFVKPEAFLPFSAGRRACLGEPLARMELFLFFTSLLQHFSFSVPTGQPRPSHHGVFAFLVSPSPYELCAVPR"}, "Fatty acid synthase [11]": {"biological_target": "T4, Fatty acid synthase", "experiment": "inhibition of human FAS-TE enzyme activity – biochemical, kinetic fluorescence intensity, dose response (AID 624326);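 note: rate of fluorescence rise from hydrolysis of a fluorogenic O-methyl fluorescein ester substrate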", "assay_type": "functional"}},
  "note": "The source made the active and inactive calls.",
  "data": [
    {"molecule": "CC(C(=O)Nc1ccc(C(=O)O)c(O)c1)N1C(=O)/C(=C\\c2ccco2)SC1=S", "note": "(centres undefined)", "values": [
      {"measurement": "EC50", "setting": "[1]", "result": "62.2 µM (active)"},
      {"measurement": "IC50", "setting": "[2]", "result": "14.6 µM (active)"},
      {"measurement": "IC50", "setting": "Large T antigen", "result": "47.9 µM (active)"},
      {"measurement": "IC50", "setting": "Genome polyprotein", "result": "79.4 µM (active)"},
      {"measurement": "IC50", "setting": "Cysteine protease ATG4B", "result": "11 µM (active)"},
      {"measurement": "EC50", "setting": "[3]", "result": "50.8 µM (active)"},
      {"measurement": "IC50", "setting": "Phospholipase A2", "result": "26.6 µM (inactive)"},
      {"measurement": "CC50", "setting": "Vero", "result": "> 40 µM (active)"},
      {"measurement": "EC50", "setting": "[4]", "result": "51.2 µM (active)"},
      {"measurement": "IC50", "setting": "Prothrombin", "result": "98.5 µM (active)"},
      {"measurement": "AC50", "setting": "ORF 73", "result": "66.3 µM (active)"},
      {"measurement": "IC50", "setting": "[5]", "result": "0.968 µM (active)"}
    ]},
    {"molecule": "CC[C@@](C)(C(=O)Nc1ccc(Br)cc1)N(Cc1ccco1)C(=O)c1ccccn1", "values": [
      {"measurement": "IC50", "setting": "[6]", "result": "> 32 µM (inactive)"},
      {"measurement": "IC50", "setting": "[7]", "result": "> 32 µM (inactive)"},
      {"measurement": "EC50", "setting": "[8]", "result": "0.0523 µM (active)"}
    ]},
    {"molecule": "Cc1c(C(=O)Nc2ccc3c(c2)OCCO3)sc2ncnc(N3CCCCC3C)c12", "note": "(centres undefined)", "values": [
      {"measurement": "IC50", "setting": "[9]", "result": "4.95 µM (active)"}
    ]},
    {"molecule": "CC(C)(C)c1ccc(OC(=O)Nc2ccc(O)c(C(=O)O)c2)cc1", "values": [
      {"measurement": "IC50", "setting": "Fatty acid synthase [10]", "result": "9.66 µM (active)"},
      {"measurement": "AC50", "setting": "Cytochrome P450 2D6", "result": "inconclusive"},
      {"measurement": "IC50", "setting": "Fatty acid synthase [11]", "result": "11.7 µM (active)"}
    ]}
  ]
}
